Results from US20230263822A1, “MODULATION OF FACTOR 11 EXPRESSION” (Ionis Pharmaceuticals, Inc., priority 2008, published 2023).
Strand notation (5' to 3'): a small letter for the sugar, then the base; units joined by * are phosphorothioate-linked, units joined directly phosphodiester-linked; [ ] holds rarer units or linkages, { } end groups; capitals alone tell only the bases. e = 2'-O-(2-methoxyethyl) (MOE); [5mC] = 5-methylcytosine; d = 2'-deoxy (DNA)

Tests used:
human Factor 11 mRNA = assay: Dose-dependent inhibition of human Factor 11 in HepG2 cells, electroporation 625-20,000 nM (Example 5); assay type: cell-based; settings: ~16 hours
Description: The gapmers were also transfected via electroporation and their dose dependent inhibition of human Factor 11 mRNA was measured. Cells were plated at a density of 20,000 cells per well and transfected via electroporation with 625 nM, 1250 nM, 2500 nM, 5,000 nM, 10,000 nM, and 20,000 nM concentrations of antisense oligonucleotide, as specified in Table 12. After a treatment period of approximately 16 hours, RNA was isolated from the cells and human Factor 11 mRNA levels were measured by quantitative real-time PCR. Human Factor 11 primer probe set RTS 2966 was used to measure mRNA levels. Factor 11 mRNA levels were adjusted according to total RNA content, as measured by RIBOGREEN. Results are presented as percent inhibition of human Factor 11, relative to untreated control cells.

[1] = parameters: species or system CD1 mice; settings: mouse, in vivo
Description: Five mice from each group were sacrificed 3 days, 28 days and 56 days following the final dose. Livers were harvested for analysis.
The concentration of the full-length oligonucleotide as well as the total oligonucleotide concentration (including the degraded form) was measured. The method used is a modification of previously published methods (Leeds et al., 1996; Geary et al., 1999) which consist of a phenol-chloroform (liquid-liquid) extraction followed by a solid phase extraction. An internal standard (ISIS 355868, a 27-mer 2′-O-methoxyethyl modified phosphorothioate oligonucleotide, […], designated herein as SEQ ID NO: 270) was added prior to extraction. […] Half-lives were then calculated using WinNonlin software ([…]).
The results are presented in Tables 68 and 69, expressed as μg/g liver tissue.

[2] = parameters: species or system Sprague-Dawley rats; settings: rat, in vivo
Description: Three days after the last dose, the rats were sacrificed and livers and kidneys were collected for analysis.
The concentration of the full-length oligonucleotide as well as the total oligonucleotide concentration (including the degraded form) was measured. The method used is a modification of previously published methods (Leeds et al., 1996; Geary et al., 1999) which consist of a phenol-chloroform (liquid-liquid) extraction followed by a solid phase extraction. An internal standard (ISIS 355868, a 27-mer 2′-O-methoxyethyl modified phosphorothioate oligonucleotide, […], designated herein as SEQ ID NO: 270) was added prior to extraction. […] The results are presented in Tables 77 and 78, expressed as μg/g liver or kidney tissue. Half-lives were then calculated using WinNonlin software ([…]).

Factor 11 mRNA = Factor 11 mRNA in cynomolgus monkey liver, day 55 (Example 46); assay type: in vivo, cynomolgus monkeys; settings: cynomolgus monkeys, 25 mg/kg
Method in brief: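 Male and female cynomolgus monkeys (2+2 per group) received antisense oligonucleotides sc at 25 mg/kg, three times weekly in week 1 and twice weekly in weeks 2-8. PBS-dosed animals served as control. Factor 11 mRNA in liver on day 55 was measured by real-time PCR (primer probe set LTS00301) as percent inhibition relative to PBS control.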

[3] = Body and organ weights of cynomolgus monkeys (Example 46); assay type: in vivo; parameters: Liver weight / Spleen weight / Kidney weight: unit not given here; settings: for Kidney weight / Liver weight / Spleen weight: day 55, after euthanasia
Description: (§1) Groups, each consisting of two male and two female monkeys, were injected subcutaneously with 25 mg/kg of ISIS 416850, ISIS 449709, ISIS 445522, ISIS 449710, ISIS 449707, ISIS 449711, ISIS 449708, 416858, and ISIS 445531. Antisense oligonucleotide was administered to the monkeys at 25 mg/kg three times per week for week 1 and 25 mg/kg twice per week for weeks 2 to 8. A control group, consisting of two male and two female monkeys was injected subcutaneously with PBS according to the same dosing regimen. Body weights were taken 14 days and 7 days before the start of treatment and were then measured weekly throughout the treatment period. Blood samples were collected 14 days and 5 days before the start of treatment and subsequently several times during the dosing regimen for PT and aPTT measurements, and measurement of various hematologic factors. On day 55, the monkeys were euthanized by exsanguination while under deep anesthesia, and organs harvested for further analysis.
Organ weights were taken after the animals were euthanized on day 55, and livers, kidneys and spleens were harvested.

[4] = Liver function, ALT, AST, bilirubin in cynomolgus monkeys (Example 46); assay type: in vivo; settings: plasma
Description: as §1
Plasma concentrations of alanine transaminase (ALT) and aspartate transaminase (AST) were measured and the results are presented in Tables 152 and 153 expressed in IU/L. Plasma levels of bilirubin were also measured and results are presented in Table 154 expressed in mg/dL. As observed in Tables 152-154, there were no significant increases in any of the liver metabolic markers after antisense oligonucleotide treatment.

Substance	percent inhibition of human Factor 11 mRNA relative to untreated control cells (human Factor 11 mRNA; 625 nM) [%]	percent inhibition of human Factor 11 mRNA relative to untreated control cells (human Factor 11 mRNA; 1250 nM) [%]	percent inhibition of human Factor 11 mRNA relative to untreated control cells (human Factor 11 mRNA; 2500 nM) [%]	percent inhibition of human Factor 11 mRNA relative to untreated control cells (human Factor 11 mRNA; 5000 nM) [%]	percent inhibition of human Factor 11 mRNA relative to untreated control cells (human Factor 11 mRNA; 10000 nM) [%]	percent inhibition of human Factor 11 mRNA relative to untreated control cells (human Factor 11 mRNA; 20000 nM) [%]	Half-Life in the liver [1] [days]	Half-life in the liver and kidney [2] [days]	Factor 11 mRNA in liver vs PBS control (Factor 11 mRNA)	body weight ([3]; day 1) [g]	body weight ([3]; day 8) [g]	body weight ([3]; day 15) [g]	body weight ([3]; day 22) [g]	body weight ([3]; day 29) [g]	body weight ([3]; day 36) [g]	body weight ([3]; day 43) [g]	body weight ([3]; day 50) [g]	Kidney weight [3]	Liver weight [3]	Spleen weight [3]	further results
416825 (antisense GCCCTTCATGTCTAGGTCCA; 5-10-5 gapmer, further chemistry not given here) [compound 416825]	69	84	91	94	96	97	16	16	–	–	–	–	–	–	–	–	–	–	–	–	–
416826 (antisense ATGCCCTTCATGTCTAGGTC; 5-10-5 gapmer, further chemistry not given here) [compound 416826]	67	82	89	92	95	97	13	13	–	–	–	–	–	–	–	–	–	–	–	–	–
416838 (antisense GCAACCGGGATGATGAGTGC; 5-10-5 gapmer, further chemistry not given here) [compound 416838]	66	79	87	90	93	96	13	13	–	–	–	–	–	–	–	–	–	–	–	–	–
416864 (antisense GGCAGCGGACGGCATTGGTG; 5-10-5 gapmer, further chemistry not given here) [compound 416864]	45	74	84	87	92	94	13	13	–	–	–	–	–	–	–	–	–	–	–	–	–
416892 (antisense GCCCTTCATGTCTAGGTCCA; 3-14-3 chimeric gapmer, further chemistry not given here) [compound 416892]	66	86	96	97	100	100	12	12	–	–	–	–	–	–	–	–	–	–	–	–	–
416925 (antisense GGTGCACAGTTTCTGGCAGG; 3-14-3 gapmer chemistry, further chemistry not given here) [compound 416925]	64	80	88	91	95	96	12	12	–	–	–	–	–	–	–	–	–	–	–	–	–
ISIS 449708: 3-8-3, 4-8-4, 2-10-2, 3-10-3 or 4-10-4 MOE microwalk gapmer (Table 46) (antisense eA*e[5mC]*eA*dG*dT*dT*dT*d[5mC]*dT*dG*dG*e[5mC]*eA*eG)	–	–	–	–	–	–	–	–	significant reduction of Factor 11 mRNA	2130	2148	2125	2110	2095	2100	2125	2076	0.60	2.6	0.19	body weight ([3]; day −7): 2163 g; body weight ([3]; day −14): 2096 g; ALT ([4]; Day 31): 44 IU/L; AST ([4]; Day 31): 56 IU/L; Bilirubin ([4]; Day 31): 0.14 mg/dL; ALT ([4]; Day 55): 46 IU/L; AST ([4]; Day 55): 50 IU/L; Bilirubin ([4]; Day 55): 0.14 mg/dL; ALT ([4]; Day −5): 54 IU/L; AST ([4]; Day −5): 53 IU/L; Bilirubin ([4]; Day −5): 0.21 mg/dL; ALT ([4]; Day −14): 48 IU/L; AST ([4]; Day −14): 74 IU/L; Bilirubin ([4]; Day −14): 0.27 mg/dL
ISIS 449709: 3-8-3, 4-8-4, 2-10-2, 3-10-3 or 4-10-4 MOE microwalk gapmer (Table 46) (antisense eG*e[5mC]*eA*e[5mC]*dA*dG*dT*dT*dT*d[5mC]*dT*dG*dG*d[5mC]*eA*eG*eG*e[5mC])	–	–	–	–	–	–	–	–	significant reduction of Factor 11 mRNA	2112	2075	2085	2117	2068	2064	2106	2147	0.57	2.6	0.21	body weight ([3]; day −7): 2093 g; body weight ([3]; day −14): 2044 g; ALT ([4]; Day 31): 65 IU/L; AST ([4]; Day 31): 45 IU/L; Bilirubin ([4]; Day 31): 0.15 mg/dL; ALT ([4]; Day 55): 102 IU/L; AST ([4]; Day 55): 71 IU/L; Bilirubin ([4]; Day 55): 0.18 mg/dL; ALT ([4]; Day −5): 77 IU/L; AST ([4]; Day −5): 51 IU/L; Bilirubin ([4]; Day −5): 0.19 mg/dL; ALT ([4]; Day −14): 73 IU/L; AST ([4]; Day −14): 62 IU/L; Bilirubin ([4]; Day −14): 0.24 mg/dL
ISIS 449710: 3-8-3, 4-8-4, 2-10-2, 3-10-3 or 4-10-4 MOE microwalk gapmer (Table 46) (antisense e[5mC]*eA*e[5mC]*dA*dG*dT*dT*dT*d[5mC]*dT*dG*dG*d[5mC]*eA*eG*eG)	–	–	–	–	–	–	–	–	significant reduction of Factor 11 mRNA	2131	2120	2145	2177	2149	2180	2227	2201	0.58	2.6	0.24	body weight ([3]; day −7): 2114 g; body weight ([3]; day −14): 2097 g; ALT ([4]; Day 31): 37 IU/L; AST ([4]; Day 31): 37 IU/L; Bilirubin ([4]; Day 31): 0.15 mg/dL; ALT ([4]; Day 55): 45 IU/L; AST ([4]; Day 55): 64 IU/L; Bilirubin ([4]; Day 55): 0.22 mg/dL; ALT ([4]; Day −5): 42 IU/L; AST ([4]; Day −5): 38 IU/L; Bilirubin ([4]; Day −5): 0.19 mg/dL; ALT ([4]; Day −14): 37 IU/L; AST ([4]; Day −14): 52 IU/L; Bilirubin ([4]; Day −14): 0.24 mg/dL
